Assay results taken from ChEMBL document CHEMBL4765279, “Discovery of a novel series of imidazo[1',2':1,6]pyrido[2,3-d]pyrimidin derivatives as potent cyclin-dependent kinase 4/6 inhibitors” (Eur J Med Chem, 2020).

Key:
[1] = molecular target: CDK4/Cyclin D3 (Homo sapiens, UniProt P11802); assay: Inhibition of recombinant human full-length N-terminal GST-fused CDK4 (1 to 303 residues)/GST-tagged CyclinD3 (1 to 292 residues) expressed in baculovirus expression system using ULight-elF4E-binding protein 1 peptide as substrate measured after 30 mins by LANCE assay
[2] = molecular target: CDK6/Cyclin D3 (Homo sapiens, UniProt Q00534); assay: Inhibition of human full-length N-terminal GST tagged CDK6 (1 to 326 residues)/GST-tagged cyclinD3 (1 to 292 residues) expressed in baculovirus expression system using ULight-elF4E-binding protein 1 peptide as substrate measured after 30 mins by LANCE assay
[3] = test system: COLO 205; assay: Antiproliferative activity against human COLO 205 cells assessed as cell growth inhibition measured after 4 to 6 days by celltiter-glo luminescent cell viability assay; type: functional, cell-based
[4] = test system: U-87 MG; assay: Antiproliferative activity against human U-87 MG cells assessed as cell growth inhibition measured after 4 to 6 days by celltiter-glo luminescent cell viability assay; type: functional, cell-based, U-87MG ATCC
[5] = test system: COLO 205; assay: Cell cycle arrest in human COLO 205 cells assessed as accumulation at G0/G1 phase at 200 nM measured after 24 hrs by propidium iodide staining based flow cytometry relative to control; type: functional
[6] = test system: MDA-MB-468; assay: Antiproliferative activity against human MDA-MB-468 cells assessed as cell growth inhibition measured after 4 to 6 days by celltiter-glo luminescent cell viability assay; type: functional, cell-based

Chain of CDK4/Cyclin D3 (P11802 whole entry, the tested form may be a part): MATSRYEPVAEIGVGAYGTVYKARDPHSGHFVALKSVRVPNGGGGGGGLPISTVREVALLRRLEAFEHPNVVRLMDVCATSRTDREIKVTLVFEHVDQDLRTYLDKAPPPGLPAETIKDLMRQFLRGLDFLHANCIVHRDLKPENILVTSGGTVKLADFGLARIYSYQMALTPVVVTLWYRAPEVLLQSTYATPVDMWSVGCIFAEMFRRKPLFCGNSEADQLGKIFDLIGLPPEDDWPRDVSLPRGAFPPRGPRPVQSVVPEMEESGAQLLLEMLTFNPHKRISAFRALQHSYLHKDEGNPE
Chain of CDK4/Cyclin D3 (P30281 whole entry, further chain, the tested form may be a part): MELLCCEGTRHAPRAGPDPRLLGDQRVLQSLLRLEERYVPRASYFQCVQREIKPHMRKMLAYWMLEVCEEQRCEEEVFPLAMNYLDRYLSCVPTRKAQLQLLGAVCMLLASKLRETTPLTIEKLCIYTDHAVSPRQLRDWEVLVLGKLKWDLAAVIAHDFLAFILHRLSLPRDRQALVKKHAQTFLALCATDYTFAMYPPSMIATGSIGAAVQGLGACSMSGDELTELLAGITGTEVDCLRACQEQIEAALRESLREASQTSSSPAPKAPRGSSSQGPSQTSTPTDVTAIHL
Chain of CDK6/Cyclin D3 (Q00534 whole entry, looked up, the tested form may be a part): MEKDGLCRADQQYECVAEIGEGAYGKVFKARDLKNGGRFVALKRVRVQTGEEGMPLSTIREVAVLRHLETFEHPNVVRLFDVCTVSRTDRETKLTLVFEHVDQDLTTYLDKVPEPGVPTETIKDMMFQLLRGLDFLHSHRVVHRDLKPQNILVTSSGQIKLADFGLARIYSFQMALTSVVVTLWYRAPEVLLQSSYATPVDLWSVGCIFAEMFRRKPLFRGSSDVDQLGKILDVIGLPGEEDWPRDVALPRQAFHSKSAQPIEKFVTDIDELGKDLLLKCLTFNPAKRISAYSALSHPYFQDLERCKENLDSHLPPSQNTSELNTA

Row | Compound | IC50 [1] [nM] | IC50 [2] [nM] | IC50 [3] [nM] | IC50 [4] [nM] | Activity [5] [%] | IC50 [6] [nM]
1 | CC(=O)c1c(C)c2cnc(Nc3ccc(C(=O)N4CCNCC4)cn3)nc2n2cc(C(C)C)nc12 | 5.3 | 5.6 | 932 | 380 | – | –
2 | CC(=O)c1c(C)c2cnc(Nc3ccc(N4CCNCC4)cn3)nc2n2cc(C(C)C)nc12 | 3.7 | 3.7 | 290 | 291 | – | –
3 | Cc1cn2c(n1)c(C#N)c(C)c1cnc(Nc3ccc(N4CCOCC4)cc3)nc12 | 123 | 110 | – | – | – | –
4 | CC(=O)c1c(C)c2cnc(Nc3ccc(CN4CCNCC4)cn3)nc2n2cc(C(C)C)nc12 | 2.2 | 2.5 | 356 | 165 | – | –
5 | Cc1cn2c(n1)c(C#N)c(C)c1cnc(Nc3ccc(N4CCNCC4)cc3)nc12 | 26.5 | 33.6 | – | – | – | –
6 | CC(=O)c1c(C)c2cnc(Nc3ccc(N4CC5(CCOCC5)C4)cn3)nc2n2cc(C(C)C)nc12 | 9.9 | 25.7 | 534 | 539 | – | –
7 | CC(=O)c1c(C)c2cnc(Nc3ccc4c(n3)CCN(CCN(C)C)C4)nc2n2cc(C(C)C)nc12 | 4.2 | 5.1 | 324 | 249 | – | –
8 | CC(=O)c1c(C)c2cnc(Nc3ccc(N4CCNCC4)cn3)nc2n(C2CCCC2)c1=O [PALBOCICLIB] | – | – | 301 | 345 | 95.7 | 5420
9 | CNCCN1CCc2nc(Nc3ncc4c(C)c(C(C)=O)c5nc(C(C)C)cn5c4n3)ccc2C1 | 2.7 | 7.1 | 639 | 184 | – | –
10 | Cc1cn2c(n1)c(C#N)c(C)c1cnc(Nc3ccc(Br)cc3)nc12 | > 3330 | 924 | – | – | – | –
11 | Cc1c(C#N)c2nc(C(C)C)cn2c2nc(Nc3ccc(N4CCNCC4)cc3)ncc12 | 10.3 | 9 | – | 585 | – | –
12 | Cc1cn2c(n1)c(C#N)c(C)c1cnc(Nc3ccc(Cl)cc3)nc12 | 271 | 280 | – | – | – | –
13 | CC(=O)c1c(C)c2cnc(Nc3ccc(N4CCC5(CCNC5)C4)cn3)nc2n2cc(C(C)C)nc12 (stereo not drawn) | 4 | 3.8 | 1280 | 719 | – | –
